“Also recorded” adds a separate entry of the source.
Legend:
[1] = test system: infiltrated tobacco cells; experiment: Western blot of infiltrated tobacco plants; assay type: cell-based, Nicotiana tabacum; settings: infiltrated tobacco leaf tissue
Method: Samples of the infiltrated tobacco plants were assayed via Western blotting. Leaf punches were collected and subjected to bead-milling. About 100-200 mg of leaf material was mixed with 2 BBs (Daisy; Rogers, Ark.) and […] of PBST for 3 minutes in a Kleco™ bead mill. The samples were then spun down in a centrifuge at 14,000× g at 4° C. The supernatant was removed and either analyzed directly via Western blot or immunoprecipitated. The immunoprecipitations were performed using the Pierce Direct IP Kit™ (Thermo Scientific; Rockford, Ill.) following the manufacturer's protocol. Approximately, 50 μg of anti-YFP or anti-GFP was bound to the resin. The samples were incubated with the resin overnight at 4° C. Next, the samples were washed and eluted the following morning and prepped for analysis by combining equal volumes of 2×8M Urea sample buffer and then boiling the samples for 5 minutes. The boiled samples were run on a 4-12% SDS-Bis Tris gel in MOPS buffer for 40 minutes. The gel was then blotted using the Invitrogen iBlot™ (Life Technologies; Carlsbad, Calif.) following the manufacturer's protocol. The blotted membrane was blocked for 10 minutes using 5% non-fat dry milk in PBS-Tween® solution. The membrane was probed with the primary antibody (monoclonal anti-GFP or anti-YFP in rabbit) used at a 1:1000 dilution in the 5% non-fat dry milk in PBS-Tween® solution for 1 hour. Next, the membrane was rinsed three times for five minutes with PBS-Tween® to remove all unbound primary antibody. The membrane was probed with a secondary monoclonal anti-rabbit in goat antibody (Life Technologies) used at a 1:1000 dilution, for 60 minutes. The membrane was washed as previously described and developed by adding Themo BCIP/NBT™ substrate. The colormetric substrate was allowed to develop for 5-10 minutes and then the blots were rinsed with water before being dried.

[2] = test system: dgt-28 transformed T1 Arabidopsis; experiment: Glyphosate tolerance of dgt-28 transformed T1 Arabidopsis; assay type: in vivo, Arabidopsis thaliana; settings: dgt-28 linked with the chloroplast transit peptide, T1 Arabidopsis
Method: The Arabidopsis T1 transformants (from transformation with pDAB114286 or pDAB114287) were first selected from the background of untransformed seed using a glufosinate selection scheme. Three flats or 50,000 seed were analyzed for each T1 construct. The selected T1 plants were molecularly characterized (as described above) and events with a range of copy number were sprayed with various rates of commercial glyphosate.
Transgenic T1 Arabidopsis plants containing the dgt-28 transgene were sprayed with differing rates of glyphosate. Elevated rates were applied in this study to determine the relative levels of resistance (420, 840, 1,680 or 3,360 g ae/ha). The typical 1× field usage rate of glyphosate is 1120 g ae/ha. The response of these plants is presented in terms of % visual injury 2 weeks after treatment (WAT). The T1 Arabidopsis plants that were used in this study were of variable copy number for the dgt-28 transgene. The low copy dgt-28 T1 Arabidopsis plants were self-pollinated and used to produce T2 plants.
An arithmetic mean and standard deviation is presented for each construct used for Arabidopsis transformation. The range in individual response is also indicated in the last column for each rate and transformation. Wildtype, non-transformed Arabidopsis thaliana c.v. Columbia served as a glyphosate sensitive control.

[3] = test system: chloroplasts of the tobacco leaf tissues; experiment: Tobacco transient assay, confocal microscopy of TraP-YFP/GFP; assay type: cell-based, Nicotiana tabacum; settings: TraP-YFP or TraP-GFP fusion, Agrobacterium-infiltrated tobacco leaf tissue
Excerpt: The above described chimeric chloroplast transit peptide sequences were initially tested via a transient in planta assay. Polynucleotide sequences which encode the TraP10 (SEQ ID NO:9), TraP11 (SEQ ID NO:10), TraP17 (SEQ ID NO:11), TraP18 (SEQ ID NO:12), TraP19 (SEQ ID NO:13), TraP26 (SEQ ID NO:14), TraP27 (SEQ ID NO:15), and TraP28 (SEQ ID NO:16), chimeric chloroplast transit peptide sequences were synthesized. A linker sequence (SEQ ID NO:17) was incorporated between the TraP sequence and the yfp coding sequence of TraP10 and TraP11. The resulting constructs contained two plant transcription units (PTU). The first PTU was comprised of the Arabidopsis thaliana Ubiquitin 10 promoter (AtUbi10 promoter; Callis, et al., (1990) J. Biol. Chem., 265: 12486-12493), TraP-yellow fluorescent protein fusion gene (TraP-YFP; US Patent App. 2007/0298412) or the TraP-green fluorescent protein fusion gene (TraP-GFP; Sheen et al., (1995) Plant J., 8(5): 777-84), and Agrobacterium tumefaciens ORF 23 3′ untranslated region (AtuORF23 3′UTR; U.S. Pat. No. 5,428,147). The second PTU was comprised of the Cassava Vein Mosaic Virus promoter (CsVMV promoter; Verdaguer et al., (1996) Plant Molecular Biology, 31: 1129-1139), phosphinothricin acetyl transferase (PAT; Wohlleben et al., (1988) Gene, 70: 25-37) or DSM-II (International Patent App. 2008070845), and Agrobacterium tumefaciens ORF 1 3′ untranslated region (AtuORF1 3′UTR; Huang et al., (1990) J. Bacteriol., 172: 1814-1822). Construct pDAB101979 contains the TraP10 chimeric chloroplast transit peptide (FIG. 3). Construct pDAB101980 contains the TraP11 chimeric chloroplast transit peptide (FIG. 4). Construct pDAB107634 contains the TraP17 chimeric chloroplast transit peptide (FIG. 5). Construct pDAB107635 contains the TraP18 chimeric chloroplast transit peptide (FIG. 6). Construct pDAB107636 contains the TraP19 chimeric chloroplast transit peptide (FIG. 7). Construct pDAB109847 contains the TraP26 chimeric chloroplast transit peptide (FIG. 8). Construct pDAB109848 contains the TraP27 chimeric chloroplast transit peptide (FIG. 9). Construct pDAB109849 contains the TraP28 chimeric chloroplast transit peptide (FIG. 10). […] The constructs were confirmed via restriction enzyme digestion and sequencing. Finally, the constructs were transformed into Agrobacterium tumefaciens and stored as glycerol stocks.
From an Agrobacterium glycerol stock, a loop full of frozen culture was inoculated into 2 ml of Yeast-extract Peptone Dextrose (100 μg/ml spectinomycin) in a 14 ml sterile tube. The inoculated media was incubated at 28° C. overnight with shaking at 200 rpm. The following day about 100 μl of the culture was used to inoculate 25 ml of YPD (100 μg/ml spectinomycin) in a 125 ml sterile tri-baffled flask, and incubated overnight at 28° C. overnight with shaking at 200 rpm. The following day the cultures were diluted to an OD600 of 0.5 in sterile ddH2O (pH 8.0). The diluted Agrobacterium strain was mixed with a second Agrobacterium strain containing the P19 helper protein at a ratio of 1:1. The culture were used for tobacco leaf infiltration via the Voinnet method. Voinnet O, Rivas S, Mestre P, and Baulcombe D, (2003) An enhanced transient expression system in plants based on suppression of gene silencing by the p19 protein of tomato bushy stunt virus. The Plant Journal, 33: 949-956. Infiltrated tobacco plants were placed in a Conviron™ set at 16 hr of light at 24° C. for at least three days until being assayed.
Agrobacterium-infiltrated tobacco leaves were severed from the plant, and placed into a petri-dish with water to prevent dehydration. The infiltrated tobacco leaves were observed under blue light excitation with long-pass filter glasses held in place using a Dark Reader Hand Lamp™ (Clare Chemical Research Co.; Dolores, Colo.) to identify undamaged areas of the leaf that were successfully expressing the YFP or GFP reporter proteins. […]

[4] = test system: chloroplasts of the maize protoplasts; experiment: Maize protoplast transient assay, microscopy of TraP-GFP; assay type: cell-based, Zea mays c.v. B104; settings: TraP-GFP fusion, transfected maize protoplasts, microscopy after 12 hours
Method: Seed of Zea mays c.v. B104 were surface sterilized by shaking vigorously in 50% Clorox™ (3% sodium hypochlorite), containing 2-3 drops of Tween® 20, for about 20 minutes. The seeds were rinsed thoroughly with sterile distilled water. The sterile seed were plated onto ½ MS medium in Phytatrays or similar type boxes, and allowed to grow in the dark (28° C.) for 12 to 20 days. A maize protoplast transient assay was used to obtain and transfect maize protoplasts from leaves of Zea mays c.v. B104. This maize protoplast assay is a modification of the system described by Yoo, S.-D., Cho, Y.-H., and Sheen, J., (2007), Arabidopsis Mesophyll Protoplasts: A Versitile Cell System for Transient Gene Expression Analysis, Nature Protocols, 2: 1565-1572. The solutions were prepared as described by Yoo et. al., (2007), with the exception that the mannitol concentration used for the following experiments was change to 0.6 M.
Transfection of 100 to 500 μl of protoplasts (1-5×10^5 cells) was completed by adding the protoplasts to a 2 ml microfuge tube containing about 40 μg of plasmid DNA, at room temperature. The volume of DNA was preferably kept to about 10% of the protoplast volume. The protoplasts and DNA were occasionally mixed during a 5 minute incubation period. An equal volume of PEG solution was slowly added to the protoplasts and DNA, 2 drops at a time with mixing in between the addition of the drops of PEG solution. The tubes were allowed to incubate for about 10 minutes with occasional gentle mixing. Next, 1 ml of W5+ solution was added and mixed by inverting the tube several times. The tube(s) were centrifuged for 5 minutes at 75× g at a temperature of 4° C. Finally, the supernatant was removed and the pellet was resuspended in 1 ml of WI solution and the protoplasts were placed into a small petri plate (35×10 mm) or into 6-well multiwell plates and incubated overnight in the dark at room temperature. Fluorescence of GFP was viewed by microscopy after 12 hours of incubation. The microscopy conditions similar to those previously described were used for the imaging.

| Molecule | TraP processed and cleaved from the YFP or GFP protein [1] | protection to glyphosate [2] | translocation of YFP or GFP fluorescent protein into chloroplasts [3] | translocation of YFP or GFP fluorescent protein into chloroplasts ([3]; listed as TraP26-GFP) | translocation of YFP or GFP fluorescent protein into chloroplasts ([3]; listed as TraP28-GFP) | translocation of GFP fluorescent protein into chloroplasts [4] | translocation of GFP fluorescent protein into chloroplasts ([4]; listed as TraP17-GFP) | translocation of YFP or GFP fluorescent protein into chloroplasts ([3]; listed as TraP17-GFP) | translocation of YFP or GFP fluorescent protein into chloroplasts ([3]; listed as TraP10-YFP) |
| --- | --- | --- | --- | --- | --- | --- | --- | --- | --- |
| TraP26: synthetic chloroplast transit peptide, SEQ ID NO:6; tested fused to GFP (pDAB109847) (MAQVSMIPNAIQAPCSISLSKSQAGKSVRKVSLKPNQHAAWGLRRSGMRVGNPEVVVSAS; TraP26) | processed and cleaved from the YFP or GFP protein | provide protection to glyphosate | accumulated within the chloroplasts; also recorded: successfully targeted GFP to tobacco chloroplasts | translocated into the chloroplasts |  |  |  |  |  |
| TraP28: synthetic chloroplast transit peptide, SEQ ID NO:8; tested fused to GFP (pDAB109849) (MAVQSNMICAGVANPFVSPNLSKTRASKSVYSVLGTRLNSSARGKKSAMPLIGNRVPVSA; TraP28) | processed and cleaved from the YFP or GFP protein |  | accumulated within the chloroplasts; also recorded: successfully targeted GFP to tobacco chloroplasts |  | translocated into the chloroplasts |  |  |  |  |
| TraP17: chimeric chloroplast transit peptide, SEQ ID NO:3; N-terminus Calystegia, C-terminus Chlamydamonas reinhardtii; tested fused to GFP (pDAB107634) (protein, TraP17) MAQVNNMMQGLRLSPSNLSKPQTPLPSHSLLLGSNSLKNSVSASSVAPAPACSAPAGAGRRAVVVR |  |  | did not translocate YFP fluorescent proteins into the chloroplasts of tobacco |  |  | did translocate YFP fluorescent proteins into the chroroplasts of maize; also recorded: accumulated within the chloroplasts; also recorded: successfully targeted GFP to maize chloroplasts | translocated into the chloroplasts | did not translocate into the chloroplasts |  |
| TraP10: chimeric chloroplast transit peptide, SEQ ID NO:1; N-terminus Brassica napus, C-terminus Glycine max EPSPS; tested fused to YFP (pDAB101979) (protein, TraP10) MAQSSRICHGVQNPCVIISNLSKSNQNKSPFSVSLRPRLWGASKSRIPMHKNGSFMGNFNVGKGNSGVFKVS | processed and cleaved from the YFP or GFP protein |  | accumulated within the chloroplasts; also recorded: successfully targeted YFP to tobacco chloroplasts |  |  |  |  |  | translocated into the chloroplasts |

— US10253323B2, “Chloroplast transit peptides” (priority 2015, dated 2019)
